# Results reported in patent US11179397B2, “Imidazopyrimidine derivatives” (Gilead Sciences, Inc., priority 2018, dated 2021).
# Columns and labels:
# [1] = biological target: SHP-2 full length protein (Homo sapiens (Human), UniProt Q06124); experiment: SHP-2 biochemical DiFMUP pseudosubstrate-fluorogenic assay; conditions: 0.2 nM SHP-2, 1 μM IRS-1 activator peptide, 50 μM DiFMUP; read-out: SHP2 IC50
# In short: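 In-house recombinant full-length SHP-2 preincubated 90 min at room temperature with compounds (1:3 series, 10,000–0.005 nM), then DiFMUP substrate added at 50 μM final for 30 min more. Fluorescence normalised to DMSO wells (100%) and IC50 derived by curve fitting.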
# NCI-H358 cells = experiment: NCI-H358 3D tumor spheroid growth inhibition; assay type: cell-based; conditions: Homo sapiens, NCI-H358, 168 h, 3D spheroids, 7 days, 3D CellTiter Glo; cellular IC50 designated EC50; read-out: H358 EC50
# In short: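 Cells seeded at 1000/well in ultra-low-attachment plates at 37 °C, 5% CO2 to form spheroids, then incubated a further 7 days with compounds. Viability by 3D CellTiter Glo luminescence; % inhibition versus DMSO wells, with normalized cellular IC50 reported as EC50.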
Compound,IC50 [1] [nM],EC50 (NCI-H358 cells) [nM]
"N[C@@H]1c2ccccc2CC12CCN(c1ncc(Sc3cccc(Cl)c3Cl)c3nccn13)CC2 [Example 85, (S)-1′-(8-((2,3-dichlorophenyl)thio)imidazo[1,2-c]pyrimidin-5-yl)-1,3-dihydrospiro[indene-2,4′-piperidin]-1-amine]",2.1,11
"N[C@H]1c2ccccc2CC12CCN(c1ncc(Sc3cccc(Cl)c3Cl)c3nccn13)CC2 [Example 86, (R)-1′-(8-((2,3-dichlorophenyl)thio)imidazo[1,2-c]pyrimidin-5-yl)-1,3-dihydrospiro[indene-2,4′-piperidin]-1-amine]",250,350
"C[C@H](N)C1CCN(c2ncc(Sc3cccc(Cl)c3Cl)c3nccn23)CC1 [Example 91, (S)-1-(1-(8-((2,3-dichlorophenyl)thio)imidazo[1,2-c]pyrimidin-5-yl)piperidin-4-yl)ethan-1-amine]",170,2000
"C[C@@H]1OCC2(CCN(c3ncc(Sc4cc(=O)n(C)c5ccccc45)c4nccn34)CC2)[C@@H]1N [Example 92, 4-((5-((3S,4S)-4-amino-3-methyl-2-oxa-8-azaspiro[4.5]decan-8-yl)imidazo[1,2-c]pyrimidin-8-yl)thio)-1-methylquinolin-2(1H)-one]",> 10000,> 12500
"C[C@@H]1OCC2(CCN(c3ncc(Sc4cncc5ccccc45)c4nccn34)CC2)[C@@H]1N [Example 93, (3S,4S)-3-methyl-8-(8-(isoquinolin-4-ylthio)imidazo[1,2-c]pyrimidin-5-yl)-2-oxa-8-azaspiro[4.5]decan-4-amine]",480,> 12500
"C[C@@H](N)C1CCN(c2ncc(Sc3cccc(Cl)c3Cl)c3nccn23)CC1 [Example 94, (R)-1-(1-(8-((2,3-dichlorophenyl)thio)imidazo[1,2-c]pyrimidin-5-yl)piperidin-4-yl)ethan-1-amine]",170,1000
"C[C@@H]1OCC2(CCN(c3ncc(Sc4cccc5ncsc45)c4nccn34)CC2)[C@@H]1N [Example 95, (3S,4S)-8-(8-(benzo[d]thiazol-7-ylthio)imidazo[1,2-c]pyrimidin-5-yl)-3-methyl-2-oxa-8-azaspiro[4.5]decan-4-amine]",5.2,95
"C[C@@H]1OCC2(CCN(c3ncc(Sc4cccc5c(C=O)csc45)c4nccn34)CC2)[C@@H]1N [Example 96, 7-((5-((3S,4S)-4-amino-3-methyl-2-oxa-8-azaspiro[4.5]decan-8-yl)imidazo[1,2-c]pyrimidin-8-yl)thio)benzo[b]thiophene-3-carbaldehyde]",4.1,97
"C[C@@H]1OCC2(CCN(c3ncc(Sc4cccn5nccc45)c4nccn34)CC2)[C@@H]1N [Example 98, (3S,4S)-3-methyl-8-(8-(pyrazolo[1,5-a]pyridin-4-ylthio)imidazo[1,2-c]pyrimidin-5-yl)-2-oxa-8-azaspiro[4.5]decan-4-amine]",16,250
"C[C@@H]1OCC2(CCN(c3ncc(Sc4cccc5ccsc45)c4nccn34)CC2)[C@@H]1N [Example 99, (3S,4S)-8-(8-(benzo[b]thiophen-7-ylthio)imidazo[1,2-c]pyrimidin-5-yl)-3-methyl-2-oxa-8-azaspiro[4.5]decan-4-amine]",4.1,96
"C[C@@H]1OCC2(CCN(c3ncc(Sc4cccc5nc(N)sc45)c4nccn34)CC2)[C@@H]1N [Example 100, (3S,4S)-8-(8-((2-aminobenzo[d]thiazol-7-yl)thio)imidazo[1,2-c]pyrimidin-5-yl)-3-methyl-2-oxa-8-azaspiro[4.5]decan-4-amine]",6.7,140
"CSc1ccccc1Sc1cnc(N2CCC3(CC2)CO[C@@H](C)[C@H]3N)n2ccnc12 [Example 101, (3S,4S)-3-methyl-8-(8-((2-(methylthio)phenyl)thio)imidazo[1,2-c]pyrimidin-5-yl)-2-oxa-8-azaspiro[4.5]decan-4-amine]",5.7,84
"COC(=O)c1cccc2c(Sc3cnc(N4CCC5(CC4)CO[C@@H](C)[C@H]5N)n4ccnc34)ccnc12 [Example 105, methyl 4-((5-((3S,4S)-4-amino-3-methyl-2-oxa-8-azaspiro[4.5]decan-8-yl)imidazo[1,2-c]pyrimidin-8-yl)thio)quinoline-8-carboxylate]",82,760
"C[C@@H]1OCC2(CCN(c3ncc(Sc4cccc5cnsc45)c4nccn34)CC2)[C@@H]1N [Example 107, (3S,4S)-8-(8-(benzo[d]isothiazol-7-ylthio)imidazo[1,2-c]pyrimidin-5-yl)-3-methyl-2-oxa-8-azaspiro[4.5]decan-4-amine]",3.7,64
"C[C@@H]1OCC2(CCN(c3ncc(Sc4ccnc5c(-n6cncn6)cccc45)c4nccn34)CC2)[C@@H]1N [Example 109, (3S,4S)-8-(8-((8-(1H-1,2,4-triazol-1-yl)quinolin-4-yl)thio)imidazo[1,2-c]pyrimidin-5-yl)-3-methyl-2-oxa-8-azaspiro[4.5]decan-4-amine]",18,260

# Results, then the molecule that gave them:
IC50 [1] [nM],EC50 (NCI-H358 cells) [nM],Compound
28,270,"Cc1nccc(Sc2cnc(N3CCC4(CCC[C@H]4N)CC3)n3ccnc23)c1C [Example 80, (R)-8-(8-((2,3-dimethylpyridin-4-yl)thio)imidazo[1,2-c]pyrimidin-5-yl)-8-azaspiro[4.5]decan-1-amine]"
7.2,82,"Cc1c(Sc2cnc(N3CCC4(CCC[C@H]4N)CC3)n3ccnc23)ccnc1Cl [Example 81, (R)-8-(8-((2-chloro-3-methylpyridin-4-yl)thio)imidazo[1,2-c]pyrimidin-5-yl)-8-azaspiro[4.5]decan-1-amine]"
11,125,"N[C@@H]1CCCC12CCN(c1ncc(Sc3ccnc4c3CCCC4)c3nccn13)CC2 [Example 82, (R)-8-(8-((5,6,7,8-tetrahydroquinolin-4-yl)thio)imidazo[1,2-c]pyrimidin-5-yl)-8-azaspiro[4.5]decan-1-amine]"
150,> 12500,"N[C@@H]1CCCC12CCN(c1ncc(Sc3cccn4cnnc34)c3nccn13)CC2 [Example 83, (R)-8-(8-([1,2,4]triazolo[4,3-a]pyridin-8-ylthio)imidazo[1,2-c]pyrimidin-5-yl)-8-azaspiro[4.5]decan-1-amine]"
18,160,"N#Cc1cccc2c(Sc3cnc(N4CCC5(CCC[C@H]5N)CC4)n4ccnc34)ccnc12 [Example 88, (R)-4-((5-(1-amino-8-azaspiro[4.5]decan-8-yl)imidazo[1,2-c]pyrimidin-8-yl)thio)quinoline-8-carbonitrile]"
> 10000,> 12500,"N[C@@H]1CCCC12CCN(c1ncc(Sc3cc(=O)[nH]c4ccccc34)c3nccn13)CC2 [Example 89, (R)-4-((5-(1-amino-8-azaspiro[4.5]decan-8-yl)imidazo[1,2-c]pyrimidin-8-yl)thio)quinolin-2(1H)-one]"
37,410,"N[C@@H]1CCCC12CCN(c1ncc(Sc3ccnc4ncccc34)c3nccn13)CC2 [Example 90, (R)-8-(8-((1,8-naphthyridin-4-yl)thio)imidazo[1,2-c]pyrimidin-5-yl)-8-azaspiro[4.5]decan-1-amine]"
11,110,"C[C@@H]1OCC2(CCN(c3ncc(Sc4ccnc5c4CCC5)c4nccn34)CC2)[C@@H]1N [Example 97, (3S,4S)-8-(8-((6,7-dihydro-5H-cyclopenta[b]pyridin-4-yl)thio)imidazo[1,2-c]pyrimidin-5-yl)-3-methyl-2-oxa-8-azaspiro[4.5]decan-4-amine]"
4,66,"C[C@@H]1OCC2(CCN(c3ncc(Sc4ccnc5sccc45)c4nccn34)CC2)[C@@H]1N [Example 102, (3S,4S)-3-methyl-8-(8-(thieno[2,3-b]pyridin-4-ylthio)imidazo[1,2-c]pyrimidin-5-yl)-2-oxa-8-azaspiro[4.5]decan-4-amine]"
4.6,150,C[C@@H]1OCC2(CCN(c3ncc(Sc4ccnc5c(Br)cccc45)c4nccn34)CC2)[C@@H]1N [Example 103]
4.2,74,"C[C@@H]1OCC2(CCN(c3ncc(Sc4ccnc5c(N)cccc45)c4nccn34)CC2)[C@@H]1N [Example 104, (3S,4S)-8-(8-((8-aminoquinolin-4-yl)thio)imidazo[1,2-c]pyrimidin-5-yl)-3-methyl-2-oxa-8-azaspiro[4.5]decan-4-amine]"
4.2,39,"C[C@@H]1OCC2(CCN(c3ncc(Sc4ccnc5ccsc45)c4nccn34)CC2)[C@@H]1N [Example 106, (3S,4S)-3-methyl-8-(8-(thieno[3,2-b]pyridin-7-ylthio)imidazo[1,2-c]pyrimidin-5-yl)-2-oxa-8-azaspiro[4.5]decan-4-amine]"
3.3,87,"CSc1c(Cl)cccc1Sc1cnc(N2CCC3(CC2)CO[C@@H](C)[C@H]3N)n2ccnc12 [Example 108, (3S,4S)-8-(8-((3-chloro-2-(methylthio)phenyl)thio)imidazo[1,2-c]pyrimidin-5-yl)-3-methyl-2-oxa-8-azaspiro[4.5]decan-4-amine]"
190,930,"C[C@@H]1OCC2(CCN(c3ncc(Sc4ccnc5c(C(=O)O)cccc45)c4nccn34)CC2)[C@@H]1N [Example 110, 4-((5-((3S,4S)-4-amino-3-methyl-2-oxa-8-azaspiro[4.5]decan-8-yl)imidazo[1,2-c]pyrimidin-8-yl)thio)quinoline-8-carboxylic acid]"
